Experimental data as given in patent US20080090834A1, “SELECTIVE AZOLE PDE10A INHIBITOR COMPOUNDS” (Pfizer Inc, priority 2006, published 2008).
Where a name gives a salt, the structure may show the parent alone.

Biological target: T1, cloned rat PDE10A full-length enzyme (Rattus norvegicus, UniProt Q9QYJ6)
T1 construct: cloned rat PDE10A full-length enzyme grown in transfected Sf9 insect cells; made in house; host or cells: Sf9 insect cells
T1 sequence (Q9QYJ6 1-794): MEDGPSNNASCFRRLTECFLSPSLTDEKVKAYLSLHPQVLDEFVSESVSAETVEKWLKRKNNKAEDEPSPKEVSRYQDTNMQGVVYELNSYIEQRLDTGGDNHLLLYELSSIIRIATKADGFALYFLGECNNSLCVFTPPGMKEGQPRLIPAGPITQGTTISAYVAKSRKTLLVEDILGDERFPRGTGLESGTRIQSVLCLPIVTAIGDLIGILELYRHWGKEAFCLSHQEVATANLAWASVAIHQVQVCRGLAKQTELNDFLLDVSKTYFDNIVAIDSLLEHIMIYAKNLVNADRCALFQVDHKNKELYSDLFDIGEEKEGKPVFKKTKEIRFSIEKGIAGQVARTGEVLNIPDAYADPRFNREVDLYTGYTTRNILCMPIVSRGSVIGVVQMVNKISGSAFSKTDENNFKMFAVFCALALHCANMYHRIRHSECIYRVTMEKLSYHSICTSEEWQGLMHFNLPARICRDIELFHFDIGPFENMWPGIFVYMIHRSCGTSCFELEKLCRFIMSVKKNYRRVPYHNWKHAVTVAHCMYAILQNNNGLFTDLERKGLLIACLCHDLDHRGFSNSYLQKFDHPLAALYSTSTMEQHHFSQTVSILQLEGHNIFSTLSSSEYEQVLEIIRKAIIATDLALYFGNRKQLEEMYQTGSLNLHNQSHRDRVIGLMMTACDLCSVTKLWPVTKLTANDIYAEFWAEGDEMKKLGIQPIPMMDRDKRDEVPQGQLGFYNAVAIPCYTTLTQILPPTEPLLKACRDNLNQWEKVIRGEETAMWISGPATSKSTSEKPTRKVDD
Test: PDE10 enzyme inhibition, [3H]cAMP scintillation proximity assay
Type: biochemical
Details: rat PDE10A from Sf9 cells, 20 nM [3H]cAMP, SPA beads, 20 minute incubation at room temperature
Experimental: Compounds of the present invention were evaluated for ability to inhibit PDE10 enzyme with the following Assay procedure
The enzyme used in the procedure was cloned rat PDE10A full-length enzyme grown in transfected Sf9 insect cells. Cloned enzyme was extracted from homogenized cell pellets and stored frozen in homogenizing buffer until use. Compounds were initially dissolved in 100% DMSO and diluted out in 20 percent DMSO/water solution. Final concentration of DMSO in the assay was 2 percent as compounds were tested in triplicate in 96 well plates. Compound solution was placed in well, then tritiated cyclic AMP (New England Nuclear NET275) in assay buffer was added at 20 nM concentration. Then PDE10 enzyme in assay buffer of 50 mM Tris, 8.3 mM MgCl2, pH 7.5 at room temperature was added for a final assay volume of 100 ul. Concentration of enzyme was added such that less than 10 percent of [3H]cAMP at 20 nM was converted to detectable end product, [3H]AMP bound to SPA (Scintillation Proximity Assay) beads. Phosphodiesterase scintillation proximity yttrium silicate beads from Amersham Biosciences (RPNQ0150) were added (50 ul at 20 mg/ml) after a 20 minute incubation at room temperature. Zinc sulphate as a component of the beads stops the phosphodiesterase reaction.
Non-specific binding to SPA beads was determined by addition of 1 uM papaverine. Total conversion by enzyme without inhibitor of [3H]cAMP to [3H]AMP, as detected by scintillation of [3H]AMP bound to yttrium silicate beads, was determined in the presence of vehicle-only.

| Molecule | IC50 [nM] |
| --- | --- |
| 3-(4-(5-(4-methoxyphenyl)-2-(thiophen-2-yl)-1H-imidazol-4-yl)phenyl)-3H-imidazol[4,5-b]pyridine and 1-(4-(5-(4-methoxyphenyl)-2-(thiophen-2-yl)-1H-imidazo[4,5-b]pyridine [Example 101] | 0.708 |
| c1ccc(-c2cn(-c3cccnc3)c(-c3ccc(-n4cnc5ncccc54)cc3)n2)nc1 (single isomer, unassigned) [Example 46, 1-(4-(4-(pyridin-2-yl)-1-(pyridin-3-yl)-1H-imidazol-2-yl)phenyl)-1H-imidazo[4,5-b]pyridine bis-trifluororoacetic acid salt] | 231 |
| Cc1ccc(-n2cc(-c3ccccn3)nc2-c2ccc(-n3cnc4ncccc43)cc2)cn1 (single isomer, unassigned) [Example 48] | 63.7 |
| COc1ccc(-n2cc(-c3cccs3)nc2-c2ccc(-n3ccc4cccnc43)cc2)cc1 [Example 1] | 3.35 |
| COc1ccc(-n2cc(-c3nccs3)nc2-c2ccc(-n3ccc4cccnc43)cc2)cc1 [Example 2, 1-(4-(1-(4-methoxyphenyl)-4-(thiazol-2-yl)-1H-imidazol-2-yl)phenyl)-1H-pyrrolo[2,3-b]pyridine] | 156 |
| c1cnc2c(c1)ccn2-c1ccc(-c2nc(-c3nccs3)cn2-c2nccs2)cc1 [Example 3, 1-(4-(1,4-di(thiazol-2-yl)-1H-imidazol-2-yl)phenyl)-1H-pyrrolo[2,3-b)pyridine] | 1610 |
| Cc1cc(-n2cc(-c3ccccn3)nc2-c2ccc(-n3ccc4cccnc43)cc2)ccn1 [Example 5, 1-(4-(1-(2-methylpyridin-4-(pyridin-2-yl)-1H-imidazol-2-yl)-1H-imidazol-2-yl)phenyl)-1H-pyrrolo[2,3-b]pyridine] | 4.62 |
| Cc1ccc(-n2cc(-c3ccccn3)nc2-c2ccc(-n3ccc4cccnc43)cc2)cn1 [Example 6, 1-(4-(1-(6-methylpyridine-3-yl)-4-(pyridin-2-yl)-1H-imidazol-2-yl)phenyl)-1H-pyrrolo[2,3-b]pyridine] | 3.21 |
| CN(C)CCc1cn(-c2ccc(-c3nc(-c4ccccn4)cn3-c3cccnc3)cc2)c2ncccc12 [Example 10, N,N-dimethyl-2-(1-(4-(4-(pyridin-2-yl)-1-(pyridin-3-yl)-1H-imidazol-2-yl)phenyl)-1H-pyrrolo[2,3-b]pyridin-3-yl)ethanamine] | 8.99 |
| Fc1cc(-n2ccc3cccnc32)ccc1-c1nc(-c2ccccn2)cn1-c1cccnc1 [Example 11, 1-(3-fluoro-4-(4-(pyridin-2-yl)-1-(pyridin-3-yl)-1H-imidazol-2-yl)phenyl)-1H-pyrrolo[2,3-b]pyridine] | 4.14 |
| Cc1ccc(-n2cc(-c3ccccn3)nc2-c2ccc(-n3ccc4cccnc43)cc2C)cn1 [Example 13, 1-(3-methyl-4-(1-(6-methylpyridin-3-yl)-4-(pyridin-2-yl)-1H-imidazol-2-yl)phenyl)-1H-pyrrolo[2,3-b]pyridin] | 37.1 |
| Cc1ccc(-n2cc(-c3cccc[n+]3[O-])nc2-c2ccc(-n3ccc4cccnc43)cc2)c[n+]1[O-] [Example 15] | 16.4 |
| Cc1ccc(-n2cc(-c3cccc[n+]3[O-])nc2-c2ccc(-n3ccc4cccnc43)cc2)cn1 [Example 16, 1-(4-(1-(6-methylpyridin-3-yl)-4-(1-oxido-pyridin-2-yl)-1H-imidazol-2-yl)phenyl)-1H-pyrrolo[2,3-b]pyridine] | 12.3 |
| Cc1ccc(-n2cc(-c3ccccn3)nc2-c2ccc(-n3ccc4cc(F)cnc43)cc2)cn1 [Example 21, 5-fluoro-1-(4-(1-(6-methylpyridin-3-yl)-4-(pyridin-2x-yl)-1H-imidazol-2-yl)phenyl)-1H-pyrrolo-[2,3-b]pyridine] | 2.82 |
| c1cnc2c(c1)ccn2-c1ccc(-c2nc(-c3nccs3)cn2-c2cncnc2)cc1 [Example 26, 1-(4-(1-(pyrimidin-5-yl)-4-(thiazol-2-yl)-1H-imidazol-2-yl)phenyl)-1H-pyrrolo[2,3-b]pyridine] | 4.4 |

The remaining lines, values ahead:

| IC50 [nM] | Molecule |
| --- | --- |
| 5.5 | Cc1ccc(-n2cc(-c3ccccn3)nc2-c2ccc(-n3cnc4cccnc43)cc2)cn1 (single isomer, unassigned) [Example 49, 3-(4-(1-(6-methylpyridin-3-yl)-4-(pyridin-2-yl)-1H-imidazol-2-yl)phenyl)-3H-imidazo[4,5-b]pyridine] |
| 13.6 | c1ccc(-c2cn(-c3cncnc3)c(-c3ccc(-n4ccc5cccnc54)cc3)n2)nc1 [Example 4] |
| 1.48 | c1ccc(-c2cn(-c3ccc(-n4ccnc4)nc3)c(-c3ccc(-n4ccc5cccnc54)cc3)n2)nc1 [Example 8, 1-(4-(1-(6-(1H-imidazol-1-yl)pyridin-3-yl)-4-(pyridin-2-yl)-1H-imidazol-2-yl)phenyl)-1-H-pyrrolo[2,3-b]pyridine] |
| 3.07 | COc1ccc(-n2cc(-c3ccccn3)nc2-c2ccc(-n3ccc4cccnc43)cc2)cn1 [Example 9, 1-(4-(1-(6-methoxypyridin-3-yl)-4-(pyridin-2-yl)-1H-imidazol-2-yl)phenyl)-1H-pyrrolo[2,3-b]pyridine] |
| 31.7 | Cc1ccc(-n2cc(-c3ccccn3)nc2-c2ccc(-n3ccc4cccnc43)c(C)c2)cn1 [Example 12, 1-(2-methyl-4-(1-(6-methylpyridin-3-yl)-4-(pyridin-2-yl)-1H-imidazol-2-yl)phenyl)-1H-pyrrolo[2,3-b]pyridine] |
| 0.912 | c1ccc(-c2cn(-c3cccnc3)c(-c3ccc(-n4c5c(c6cccnc64)CSCC5)cc3)n2)nc1 [Example 17, 9-[4-(4-pyridin-2-yl-1-pyridin-3-yl-1H-imidazol-2-yl)phenyl]-5,7,8,9-tetrahydrothiopyrano[3′,4′,4,5]pyrrolo[2,3-b]pyridine] |
| 24.3 | CN(C)Cc1cn(-c2ccc(-c3nc(-c4ccccn4)cn3-c3cccnc3)cc2)c2ncccc12 [Example 18, N,N-dimethyl(1-(4-(4-(pyridin-2-yl)-1-(pyridin-3-yl)-1H-imidazol-2-yl)phenyl)-1H-pyrrolo[2,3-b]pyridin-3-yl)methanamine TFA salt] |
| 0.992 | c1ccc(-c2cn(-c3cccnc3)c(-c3ccc(-n4c5ccccc5c5cccnc54)cc3)n2)nc1 [Example 19, 9-(4-(4-(pyridin-2-yl)-1-(pyridin-3-yl)-1H-imidazol-2-yl)phenyl)-9H-pyrido[2,3-b]indole] |
| < 2.72 | Cc1ccc(-n2cc(-c3ccccn3)nc2-c2ccc(-n3ccc4cc(Cl)cnc43)cc2)cn1 [Example 20, 5-chloro-1-(4-(4-pyridin-2-yl)-1-(6-methylpyridin-3-yl-1H-imidazol-2-yl)phenyl)-1H-pyrrolo[2,3-b]pyridine] |
| 12.1 | Cc1cnc2c(ccn2-c2ccc(-c3nc(-c4ccccn4)cn3-c3ccc(C)nc3)cc2)c1 [Example 22, 5-methyl-1-(4-(1-[6-methylpyridin-3-yl)-4-(pyridin-2-yl)-1H-imidazol-2-yl)phenyl)-1H-pyrrolo[2,3-b]pyridine] |
| 3.35 | C#Cc1cc(C)cnc1N [Example 22A, 3-ethynyl-5-methylpyridin-2-amine] |
| 13.4 | c1ccc(-n2cc(-c3nccs3)nc2-c2ccc(-n3ccc4cccnc43)cc2)nc1 [Example 24] |
| 4.46 | c1cnc2c(c1)ccn2-c1ccc(-c2nc(-c3nccs3)cn2-c2ccncc2)cc1 [Example 25, 1-(4-(1-(pyridin-4-yl)-4-(thiazol-2-yl)-1H-imidazol-2-yl)phenyl)-1H-pyrrolo[2,3-b]pyridine] |
